Data from ChEMBL document CHEMBL1140269, “Amino-substituted heterocycles as isosteres of trans-cinnamides: design and synthesis of heterocyclic biaryl sulfides as potent antagonists of LFA-1/ICAM-1 binding” (Bioorg Med Chem Lett, 2005).

What was measured:
[1] = target: T1, Intercellular adhesion molecule (ICAM-1), Integrin alpha-L/beta-2 (Homo sapiens, UniProt P05107+P20701); assay: Inhibitory concentration against integrin LFA-1/ICAM-1 binding complex; type: protein-complex assay
[2] = target: T1, Intercellular adhesion molecule (ICAM-1), Integrin alpha-L/beta-2; assay: Effective concentration to measure the adherence of LFA-1 expressing JY8 cells to immobilized ICAM-1 in cell-based adhesion assay
[3] = target: T2, Intercellular adhesion molecule (ICAM-1), Integrin alpha-L/beta-2 (Homo sapiens) (UniProt P20701+P05362+P05107); assay: Inhibitory activity against ICAM-1/integrin LFA-1 binding complex at 1 uM concentration; type: protein-complex assay
[4] = target: T2, Intercellular adhesion molecule (ICAM-1), Integrin alpha-L/beta-2 (Homo sapiens); assay: Inhibitory activity against ICAM-1/integrin LFA-1 binding complex at 20 uM concentration; type: protein-complex assay

T1 sequence (P20701 whole entry): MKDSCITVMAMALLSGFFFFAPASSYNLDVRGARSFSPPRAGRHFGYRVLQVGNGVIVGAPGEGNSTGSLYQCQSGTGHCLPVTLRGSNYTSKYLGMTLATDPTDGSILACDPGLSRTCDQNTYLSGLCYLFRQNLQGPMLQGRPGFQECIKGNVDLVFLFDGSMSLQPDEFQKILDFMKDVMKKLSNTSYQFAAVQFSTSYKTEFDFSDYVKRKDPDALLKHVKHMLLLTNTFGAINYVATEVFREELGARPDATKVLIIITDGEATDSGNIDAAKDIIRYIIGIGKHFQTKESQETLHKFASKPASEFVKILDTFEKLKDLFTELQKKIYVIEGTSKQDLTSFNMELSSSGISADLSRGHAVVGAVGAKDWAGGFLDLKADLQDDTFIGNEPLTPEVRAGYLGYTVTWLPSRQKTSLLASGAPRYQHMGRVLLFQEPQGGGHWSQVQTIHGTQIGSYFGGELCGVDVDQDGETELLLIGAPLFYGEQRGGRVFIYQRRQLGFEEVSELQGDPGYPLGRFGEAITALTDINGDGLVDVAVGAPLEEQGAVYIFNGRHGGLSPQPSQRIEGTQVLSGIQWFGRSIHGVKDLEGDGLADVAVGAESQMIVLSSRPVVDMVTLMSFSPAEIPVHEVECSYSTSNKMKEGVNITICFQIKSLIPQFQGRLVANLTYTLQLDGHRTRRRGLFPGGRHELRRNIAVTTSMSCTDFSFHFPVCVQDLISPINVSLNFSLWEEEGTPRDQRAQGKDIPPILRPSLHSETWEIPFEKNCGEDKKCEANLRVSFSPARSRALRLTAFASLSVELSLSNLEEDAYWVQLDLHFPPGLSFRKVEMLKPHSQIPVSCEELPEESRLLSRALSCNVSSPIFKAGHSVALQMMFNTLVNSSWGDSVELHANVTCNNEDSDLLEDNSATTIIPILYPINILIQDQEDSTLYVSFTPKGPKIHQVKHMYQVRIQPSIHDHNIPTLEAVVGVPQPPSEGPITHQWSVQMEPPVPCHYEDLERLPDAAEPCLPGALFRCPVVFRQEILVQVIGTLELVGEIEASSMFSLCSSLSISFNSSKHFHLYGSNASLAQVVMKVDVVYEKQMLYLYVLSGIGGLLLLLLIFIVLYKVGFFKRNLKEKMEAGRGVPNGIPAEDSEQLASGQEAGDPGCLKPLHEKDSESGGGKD
T1 sequence (P05362 whole entry, further chain): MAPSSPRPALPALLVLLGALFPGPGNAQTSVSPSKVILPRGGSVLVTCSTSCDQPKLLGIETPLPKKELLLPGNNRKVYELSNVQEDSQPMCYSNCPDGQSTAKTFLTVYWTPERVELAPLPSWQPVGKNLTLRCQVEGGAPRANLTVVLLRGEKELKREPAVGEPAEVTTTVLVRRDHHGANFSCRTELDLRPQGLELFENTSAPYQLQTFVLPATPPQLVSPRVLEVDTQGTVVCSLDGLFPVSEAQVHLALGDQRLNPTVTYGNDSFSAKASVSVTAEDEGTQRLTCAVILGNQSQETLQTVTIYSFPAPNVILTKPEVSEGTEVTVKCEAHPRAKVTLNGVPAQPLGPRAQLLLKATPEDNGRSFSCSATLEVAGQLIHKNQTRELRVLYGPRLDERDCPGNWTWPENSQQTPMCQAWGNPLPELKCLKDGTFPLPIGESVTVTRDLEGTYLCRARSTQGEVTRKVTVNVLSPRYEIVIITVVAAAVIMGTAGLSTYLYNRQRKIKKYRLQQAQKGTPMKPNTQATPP
T1 sequence (P05107 whole entry): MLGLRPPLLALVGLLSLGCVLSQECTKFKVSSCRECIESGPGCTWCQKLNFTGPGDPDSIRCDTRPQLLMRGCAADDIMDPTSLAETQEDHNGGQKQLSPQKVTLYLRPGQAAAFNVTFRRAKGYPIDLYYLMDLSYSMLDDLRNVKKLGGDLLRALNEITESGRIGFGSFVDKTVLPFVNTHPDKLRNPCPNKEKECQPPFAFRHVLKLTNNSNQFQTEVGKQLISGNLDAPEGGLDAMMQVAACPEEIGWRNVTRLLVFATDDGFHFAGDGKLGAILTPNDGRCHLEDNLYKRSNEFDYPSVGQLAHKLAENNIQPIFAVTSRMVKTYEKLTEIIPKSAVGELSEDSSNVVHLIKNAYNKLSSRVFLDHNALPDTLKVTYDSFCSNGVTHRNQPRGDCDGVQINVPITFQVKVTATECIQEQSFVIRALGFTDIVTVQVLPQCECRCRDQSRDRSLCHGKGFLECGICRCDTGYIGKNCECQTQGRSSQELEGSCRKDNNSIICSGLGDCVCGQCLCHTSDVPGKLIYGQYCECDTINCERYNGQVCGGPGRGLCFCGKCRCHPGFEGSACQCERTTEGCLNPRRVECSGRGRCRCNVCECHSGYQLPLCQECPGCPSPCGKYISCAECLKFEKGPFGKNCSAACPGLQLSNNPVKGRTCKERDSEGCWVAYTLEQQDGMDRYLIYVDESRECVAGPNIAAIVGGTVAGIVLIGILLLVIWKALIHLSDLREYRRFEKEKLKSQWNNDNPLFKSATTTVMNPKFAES

SMILES: CC(C)c1ccccc1Sc1ccc(-c2cc(N3CCCC(C(=O)O)C3)ncn2)cc1C(F)(F)F (centres undefined)
- IC50 [1]: 120 nM
- EC50 [2]: 90 nM

SMILES: CC(C)c1ccccc1Sc1ccc(-c2cc(N3CCCC(c4nn[nH]n4)C3)ncn2)cc1C(F)(F)F (centres undefined)
- IC50 [1]: 51 nM
- EC50 [2]: 20 nM

SMILES: CC(C)c1ccccc1Sc1ccc(-c2ccnc(N3CCN(c4cnccn4)CC3)c2)cc1C(F)(F)F
- inhibition [3]: 82%

SMILES: CCN1CCN(c2cc(-c3ccc(Sc4ccccc4C(C)C)c(C(F)(F)F)c3)ccn2)CC1
- inhibition [3]: 54%

SMILES: CC(C)c1ccccc1Sc1ccc(-c2ccnc(N3CCN(C4CCCCC4)CC3)c2)cc1C(F)(F)F
- inhibition [3]: 21%

SMILES: CC(C)c1ccccc1Sc1ccc(-c2csc(N3CCCCC3)n2)cc1C(F)(F)F
- inhibition [4]: 40%

SMILES: CC(C)c1ccccc1Sc1ccc(-c2ccnc(N3CCN(c4ccccn4)CC3)c2)cc1C(F)(F)F
- inhibition [3]: 40%
